{"source": "patent US20070093520A1", "about": "“Method of treatment of diarrhea-predominant irritable bowel syndrome in a subject” (priority 2005, published 2007)", "tested_on": "diarrhea-predominant IBS subjects", "assay_type": "in vivo, human", "settings": "Cilansetron 2 mg, N=1454", "description": "The study was performed in approximately 150 study centers. Approximately 1600 eligible subjects were to be given cilansetron 2 mg TID. At Visit 1, pre-treatment assessments were conducted. […] Subjects were to return to the study site one month later for Visit 3 (Day 31) for their first interim assessment. […] All subjects who discontinued from the study were to have the same post-study assessments required at Visit 7 performed at their early termination visit. […]\nStool specimens were analyzed at every visit for occult blood. An independent GERB had been established to provide advice on GI AEs during the course of the study.\nAdverse events were assessed at Baseline, at each clinic visit, and at the end of the study (Month 12 or the early termination visit). All AEs, which occurred during the study were followed up in accordance with good medical practice until resolved or judged no longer clinically significant, or if a condition was chronic, until fully characterized. Adverse events could occur in the specified follow-up period and, regardless of the interval since the last administration of the study medication, were treated in the same manner as an AE which occurred during the treatment with study medication. Each AE was evaluated for duration, severity, seriousness, and causal relationship to the investigational drug. The action taken and the outcome were also recorded.\nSpecifically, subjects who were lost to follow-up and had no post-Baseline contact with the site were excluded from the Safety population. The subjects who discontinued from the study due to lost to follow-up were identified based on the information collected on the study termination CRF page.\nAfter the pretreatment assessment at Visit 1 (Days […] to −3), subjects were to return to the study site for a Baseline assessment and start the treatment at Visit 2 (Day 1).\nFor the by time-interval analyses of disposition, prevalence of AEs, and of markedly abnormal and predefined changes in laboratory values, vital signs, and ECGs, the following interval windows were used:\nAdverse events that were already present prior to the first dose of cilansetron study medication but increased in severity afterwards were considered as treatment-emergent.\nThe 5% cutoff point was based on the incidence within higher level terms.\nSubjects were counted at most once for each primary system organ class and preferred term. Serious AEs that resolved prior to receiving study medication or occurred more than 30 days after the last dose of study medication were not included in the incidence tables. A listing of all SAEs is presented; SAEs with onset prior to receiving study medication or more than 30 days after discontinuation of study medication were flagged. The listing presents lower level term and preferred term of the SAE, severity, action taken, outcome, and relationship of the SAE, start and stop date of the SAE, study day of onset of the SAE, age, race, and sex.", "data": [{"compound": "Cc1nccn1C[C@H]1CCc2c(c3cccc4c3n2CCC4)C1=O", "note": "[cilansetron, (R)-(−)-4,5,6,8,9,10-hexahydro-10-[(2-methyl-1H-imidazol-1-yl)methyl]-11H-pyrido-[3,2,1-jk]-carbazol-11-one]", "values": [{"measurement": "TEAE incidence: Intestinal Haemorrhages", "value": "22 (2%) n (%)"}, {"measurement": "TEAE incidence: Intestinal Infections", "value": "1 (<1%) n (%)"}, {"measurement": "TEAE incidence: Intestinal Mucosal Hypertrophy", "value": "1 (<1%) n (%)"}, {"measurement": "TEAE incidence: Intestinal Spasm", "value": "1 (<1%) n (%)"}, {"measurement": "TEAE incidence: Investigations", "value": "176 (12%) n (%)"}, {"measurement": "TEAE incidence: Irritable Bowel Syndrome Aggravated", "value": "13 (<1%) n (%)"}, {"measurement": "TEAE incidence: Lacunar Infarction", "value": "1 (<1%) n (%)"}, {"measurement": "TEAE incidence: Liver Function Analyses", "value": "36 (2%) n (%)"}, {"measurement": "TEAE incidence: Liver Function Tests NOS Abnormal", "value": "1 (<1%) n (%)"}, {"measurement": "TEAE incidence: Loose Stools", "value": "15 (1%) n (%)"}, {"measurement": "TEAE incidence: Lumbar Spinal Cord and Nerve Root Disorders", "value": "1 (<1%) n (%)"}, {"measurement": "TEAE incidence: Lymphocyte Count Decreased", "value": "1 (<1%) n (%)"}, {"measurement": "TEAE incidence: Lymphocyte Count Increased", "value": "1 (<1%) n (%)"}, {"measurement": "TEAE incidence: Lymphocyte Percentage Decreased", "value": "1 (<1%) n (%)"}, {"measurement": "TEAE incidence: Memory Impairment", "value": "1 (<1%) n (%)"}, {"measurement": "TEAE incidence: Memory Loss (Excl Dementia)", "value": "2 (<1%) n (%)"}, {"measurement": "TEAE incidence: Meralgia Paraesthetica", "value": "1 (<1%) n (%)"}, {"measurement": "TEAE incidence: Metabolism Tests NEC", "value": "9 (<1%) n (%)"}, {"measurement": "TEAE incidence: Migraine Aggravated", "value": "1 (<1%) n (%)"}, {"measurement": "TEAE incidence: Migraine Headaches", "value": "7 (<1%) n (%)"}, {"measurement": "TEAE incidence: Migraine NOS", "value": "6 (<1%) n (%)"}, {"measurement": "TEAE incidence: Mineral and Electrolyte Analyses", "value": "4 (<1%) n (%)"}, {"measurement": "TEAE incidence: Monocyte Count Increased", "value": "1 (<1%) n (%)"}, {"measurement": "TEAE incidence: Mononeuropathies", "value": "6 (<1%) n (%)"}, {"measurement": "TEAE incidence: Mouth Cyst", "value": "1 (<1%) n (%)"}, {"measurement": "TEAE incidence: Musculoskeletal and Connective Tissue Signs and Symptoms NEC", "value": "66 (5%) n (%)"}, {"measurement": "TEAE incidence: Musculoskeletal and connective tissue disorders", "value": "129 (9%) n (%)"}, {"measurement": "TEAE incidence: Narcolepsy and Hypersomnia", "value": "1 (<1%) n (%)"}, {"measurement": "TEAE incidence: Nausea Aggravated", "value": "1 (<1%) n (%)"}, {"measurement": "TEAE incidence: Nervous system disorders", "value": "155 (11%) n (%)"}, {"measurement": "TEAE incidence: Neuralgia NOS", "value": "4 (<1%) n (%)"}, {"measurement": "TEAE incidence: Neurological Signs and Symptoms NEC", "value": "30 (2%) n (%)"}, {"measurement": "TEAE incidence: Neutrophil Count Decreased", "value": "2 (<1%) n (%)"}, {"measurement": "TEAE incidence: Neutrophil Count Increased", "value": "2 (<1%) n (%)"}, {"measurement": "TEAE incidence: Neutrophil Percentage Decreased", "value": "2 (<1%) n (%)"}, {"measurement": "TEAE incidence: Nitrite Urine Present", "value": "4 (<1%) n (%)"}, {"measurement": "TEAE incidence: Non-Mechanical Ileus", "value": "1 (<1%) n (%)"}, {"measurement": "TEAE incidence: Non-Site Specific Gastrointestinal Haemorrhages", "value": "1 (<1%) n (%)"}, {"measurement": "TEAE incidence: Oesophageal Spasm", "value": "1 (<1%) n (%)"}, {"measurement": "TEAE incidence: Oesophagitis NOS", "value": "4 (<1%) n (%)"}, {"measurement": "TEAE incidence: Oral Candidiasis", "value": "2 (<1%) n (%)"}, {"measurement": "TEAE incidence: Oral Dryness and Saliva Altered", "value": "3 (<1%) n (%)"}, {"measurement": "TEAE incidence: Oral Soft Tissue Signs and Symptoms", "value": "1 (<1%) n (%)"}, {"measurement": "TEAE incidence: Otitis Externa NOS", "value": "2 (<1%) n (%)"}, {"measurement": "TEAE incidence: Otitis Media NOS", "value": "3 (<1%) n (%)"}, {"measurement": "TEAE incidence: Painful Defaecation", "value": "1 (<1%) n (%)"}, {"measurement": "TEAE incidence: Pancreatitis Acute", "value": "1 (<1%) n (%)"}, {"measurement": "TEAE incidence: Paraesthesia", "value": "3 (<1%) n (%)"}, {"measurement": "TEAE incidence: Paraesthesias and Dysaesthesias", "value": "5 (<1%) n (%)"}, {"measurement": "TEAE incidence: Periodontitis", "value": "3 (<1%) n (%)"}, {"measurement": "TEAE incidence: Peripheral Neuropathies NEC", "value": "1 (<1%) n (%)"}, {"measurement": "TEAE incidence: Peripheral Neuropathy NOS", "value": "1 (<1%) n (%)"}, {"measurement": "TEAE incidence: Peritonsillar Abscess", "value": "1 (<1%) n (%)"}, {"measurement": "TEAE incidence: Petit Mal Epilepsy", "value": "1 (<1%) n (%)"}, {"measurement": "TEAE incidence: Pharyngitis Streptococcal", "value": "1 (<1%) n (%)"}, {"measurement": "TEAE incidence: Pharyngotonsillitis", "value": "1 (<1%) n (%)"}, {"measurement": "TEAE incidence: Physical Examination Procedures", "value": "23 (2%) n (%)"}, {"measurement": "TEAE incidence: Pituitary Analyses Anterior", "value": "2 (<1%) n (%)"}, {"measurement": "TEAE incidence: Platelet Analyses", "value": "3 (<1%) n (%)"}, {"measurement": "TEAE incidence: Platelet Count Decreased", "value": "2 (<1%) n (%)"}, {"measurement": "TEAE incidence: Platelet Count Increased", "value": "1 (<1%) n (%)"}, {"measurement": "TEAE incidence: Pneumonia NOS", "value": "6 (<1%) n (%)"}, {"measurement": "TEAE incidence: Post Herpetic Neuralgia", "value": "1 (<1%) n (%)"}, {"measurement": "TEAE incidence: Proctalgia", "value": "6 (<1%) n (%)"}, {"measurement": "TEAE incidence: Protein Urine Present", "value": "7 (<1%) n (%)"}, {"measurement": "TEAE incidence: Pruritus Ani", "value": "3 (<1%) n (%)"}, {"measurement": "TEAE incidence: Pseudofolliculitis Barbae", "value": "1 (<1%) n (%)"}, {"measurement": "TEAE incidence: Pyelonephritis Acute NOS", "value": "1 (<1%) n (%)"}, {"measurement": "TEAE incidence: Pyelonephritis NOS", "value": "3 (<1%) n (%)"}, {"measurement": "TEAE incidence: Qrs Axis Abnormal", "value": "1 (<1%) n (%)"}, {"measurement": "TEAE incidence: Radiculitis Lumbosacral", "value": "1 (<1%) n (%)"}, {"measurement": "TEAE incidence: Rectal Haemorrhage", "value": "20 (1%) n (%)"}, {"measurement": "TEAE incidence: Rectal Polyp", "value": "1 (<1%) n (%)"}, {"measurement": "TEAE incidence: Rectal Prolapse", "value": "1 (<1%) n (%)"}, {"measurement": "TEAE incidence: Rectal Tenesmus", "value": "5 (<1%) n (%)"}, {"measurement": "TEAE incidence: Rectal Ulcer", "value": "1 (<1%) n (%)"}, {"measurement": "TEAE incidence: Red Blood Cell Analyses", "value": "2 (<1%) n (%)"}, {"measurement": "TEAE incidence: Red Blood Cell Count Decreased", "value": "1 (<1%) n (%)"}, {"measurement": "TEAE incidence: Red Blood Cell Sedimentation Rate Increased", "value": "1 (<1%) n (%)"}, {"measurement": "TEAE incidence: Red Blood Cells Urine Positive", "value": "2 (<1%) n (%)"}, {"measurement": "TEAE incidence: Regurgitation of Food", "value": "1 (<1%) n (%)"}, {"measurement": "TEAE incidence: Renal Function Analyses", "value": "2 (<1%) n (%)"}, {"measurement": "TEAE incidence: Restless Leg Syndrome", "value": "1 (<1%) n (%)"}, {"measurement": "TEAE incidence: Retching", "value": "3 (<1%) n (%)"}, {"measurement": "TEAE incidence: Sciatica", "value": "3 (<1%) n (%)"}, {"measurement": "TEAE incidence: Sensitivity of Teeth", "value": "1 (<1%) n (%)"}, {"measurement": "TEAE incidence: Sensory Abnormalities NEC", "value": "6 (<1%) n (%)"}, {"measurement": "TEAE incidence: Sepsis, Bacteraemia and Viraemia", "value": "3 (<1%) n (%)"}, {"measurement": "TEAE incidence: Serum Ferritin Decreased", "value": "1 (<1%) n (%)"}, {"measurement": "TEAE incidence: Sinus Headache", "value": "1 (<1%) n (%)"}, {"measurement": "TEAE incidence: Sinusitis Acute NOS", "value": "2 (<1%) n (%)"}, {"measurement": "TEAE incidence: Sinusitis Chronic NOS", "value": "1 (<1%) n (%)"}, {"measurement": "TEAE incidence: Skeletal and Cardiac Muscle Analyses", "value": "32 (2%) n (%)"}, {"measurement": "TEAE incidence: Skin and Subcutaneous Tissue Abscess NOS", "value": "1 (<1%) n (%)"}, {"measurement": "TEAE incidence: Sleep Apnoea Syndrome", "value": "1 (<1%) n (%)"}, {"measurement": "TEAE incidence: Sleep Apnoeas", "value": "1 (<1%) n (%)"}, {"measurement": "TEAE incidence: Sleep Talking", "value": "1 (<1%) n (%)"}, {"measurement": "TEAE incidence: Stomatitis", "value": "1 (<1%) n (%)"}, {"measurement": "TEAE incidence: Stomatitis and Ulceration", "value": "2 (<1%) n (%)"}, {"measurement": "TEAE incidence: Stools Watery", "value": "2 (<1%) n (%)"}, {"measurement": "TEAE incidence: Syncope", "value": "4 (<1%) n (%)"}, {"measurement": "TEAE incidence: Taeniasis", "value": "1 (<1%) n (%)"}, {"measurement": "TEAE incidence: Tension Headaches", "value": "2 (<1%) n (%)"}, {"measurement": "TEAE incidence: Tinea Pedis", "value": "1 (<1%) n (%)"}, {"measurement": "TEAE incidence: Tissue Enzyme Analyses NEC", "value": "7 (<1%) n (%)"}, {"measurement": "TEAE incidence: Tongue Disorders NEC", "value": "1 (<1%) n (%)"}, {"measurement": "TEAE incidence: Tonsillitis Acute NOS", "value": "2 (<1%) n (%)"}, {"measurement": "TEAE incidence: Tonsillitis NOS", "value": "11 (<1%) n (%)"}, {"measurement": "TEAE incidence: Tooth Abscess", "value": "2 (<1%) n (%)"}, {"measurement": "TEAE incidence: Tooth Caries NOS", "value": "3 (<1%) n (%)"}, {"measurement": "TEAE incidence: Toothache", "value": "11 (<1%) n (%)"}, {"measurement": "TEAE incidence: Torticollis", "value": "1 (<1%) n (%)"}, {"measurement": "TEAE incidence: Tracheitis NOS", "value": "5 (<1%) n (%)"}, {"measurement": "TEAE incidence: Tracheobronchitis", "value": "1 (<1%) n (%)"}]}]}
